Laboratory results reported in patent publication US20110184147A1, “ENZYME SUBSTRATE FOR LABELING OF PROTEIN” (priority 2008, published 2011).

Assays:
[1] = molecular target: T1, GTG (UniProt P08587); assay: Reactivity of GTG for fluorescent substrate (crosslinking with β-casein); type: biochemical, guinea pig; settings: substrate 1 mM, β-casein 0.5 mg/ml, GTG 0.2 U/ml, 50 mM HEPES pH 7.4, overnight 27° C.
T1 construct: purchased
T1 sequence (P08587 1-690): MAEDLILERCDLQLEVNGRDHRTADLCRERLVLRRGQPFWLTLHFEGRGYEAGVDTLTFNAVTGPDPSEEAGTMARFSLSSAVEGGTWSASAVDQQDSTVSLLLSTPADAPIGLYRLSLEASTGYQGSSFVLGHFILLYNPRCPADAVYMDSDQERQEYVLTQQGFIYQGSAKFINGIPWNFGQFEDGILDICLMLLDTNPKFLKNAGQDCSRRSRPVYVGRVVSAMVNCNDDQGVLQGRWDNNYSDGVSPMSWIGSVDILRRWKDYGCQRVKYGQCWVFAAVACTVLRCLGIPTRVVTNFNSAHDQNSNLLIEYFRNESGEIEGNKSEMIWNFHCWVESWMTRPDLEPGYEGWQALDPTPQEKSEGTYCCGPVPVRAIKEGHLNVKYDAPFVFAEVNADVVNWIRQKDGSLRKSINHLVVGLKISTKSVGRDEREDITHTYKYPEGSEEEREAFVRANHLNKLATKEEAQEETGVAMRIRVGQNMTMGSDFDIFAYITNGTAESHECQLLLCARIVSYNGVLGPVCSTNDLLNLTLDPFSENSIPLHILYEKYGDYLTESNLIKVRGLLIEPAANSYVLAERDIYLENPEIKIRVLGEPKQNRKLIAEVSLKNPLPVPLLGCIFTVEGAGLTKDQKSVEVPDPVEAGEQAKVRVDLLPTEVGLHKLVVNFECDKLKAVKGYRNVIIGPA
Protocol: In the experiment, β-casein was used as a protein having a TGase-recognizable Lys and a reaction for crosslinking with a fluorescent substrate was performed to evaluate its reactivity for GTG.
(§1) To perform a binding reaction, FITC-β-Ala-QG, β-casein and GTG were added to 50 mM HEPES (5 mM NaCl, 10 mM CaCl2, pH 7.4) to give respective final concentrations of 1 mM, 0.5 mg/ml and 0.2 U/ml and the resulting mixture was left to stand overnight at 27° C. Two comparative samples were prepared; one was a GTG-free sample and the other was prepared by performing an MTG-catalyzed reaction. For the MTG-catalyzed binding reaction, FITC-β-Ala-QG, β-casein and MTG were added to a 10 mM phosphate buffer (pH 7) to give respective final concentrations of 1 mM, 0.5 mg/ml and 1 U/ml and the resulting mixture was left to stand overnight at 27° C. Tracing on the sample after the reaction was performed by the same procedure as in Experiment 2-2.

[2] = molecular target: T2, MTG (Streptomyces mobaraensis, UniProt P81453); assay: MTG-catalyzed binding reaction of fluorescent substrate with β-casein; type: biochemical, microbial; settings: substrate 1 mM, β-casein 0.5 mg/ml, MTG 1 U/ml, phosphate buffer pH 7, overnight 27° C.
T2 construct: purchased AJINOMOTO (supplied as a gift)
T2 sequence (P81453 77-407): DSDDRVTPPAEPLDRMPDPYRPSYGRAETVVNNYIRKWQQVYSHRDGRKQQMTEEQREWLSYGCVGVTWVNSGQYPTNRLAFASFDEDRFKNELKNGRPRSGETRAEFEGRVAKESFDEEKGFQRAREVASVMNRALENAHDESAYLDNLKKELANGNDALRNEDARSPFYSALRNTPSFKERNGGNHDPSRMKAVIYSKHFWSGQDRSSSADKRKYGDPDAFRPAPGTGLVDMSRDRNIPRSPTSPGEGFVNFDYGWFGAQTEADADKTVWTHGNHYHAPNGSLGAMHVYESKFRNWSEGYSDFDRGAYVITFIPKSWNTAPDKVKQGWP
Protocol: as §1

[3] = tested on: BSA (antigen); assay: Antigen recognizing ability by ELISA (rabbit-derived anti-BSA IgG antibody); type: binding; settings: rabbit-derived anti-BSA IgG antibody (polyclonal) modified by MTG
Protocol: A study was made on samples that were prepared by introducing a fluorescent substrate (FITC-ε-Acp-QG or FITC-β-Ala-QG) into a rabbit-derived anti-BSA IgG antibody (polyclonal) under the same conditions as in Experiment 2-2.
ELISA was performed by the following procedure (FIG. 3-5). • 1) To a Black Plate, 5 mg/ml of BSA (antigen) was added in an amount of 150 µl/well and left to stand overnight at 37° C. • 2) The product of 1) was washed with PBST five times. • 3) Modified anti-BSA IgG antibodies were added in an amount of 60 µl/well and left to stand at room temperature for 5 hours. • 4) The product of 3) was washed with PBST five times. • 5) Examination was made with a fluorescent imager. • 6) A […] sample of AP-labeled anti-rabbit IgG IgG antibodies were added in an amount of 150 µl/well and left to stand at 37° C. for 3 hours. • 7) The product of 6) was washed with TBST five times. • 8) The substrate was added and 10 minutes later, fluorescence derived from the enzymatic reaction was examined with a fluorescent imager.

## NC(=O)CCC(NC(=O)CCNC(=S)Nc1ccc(-c2c3ccc(=O)cc-3oc3cc(O)ccc23)c(C(=O)O)c1)C(=O)NCC(=O)O (stereo not drawn) [FITC-β-Ala-QG]
[1]
  Reactivity of fluorescent substrate for GTG: also recognized by MTG
[2]
  Fluorescence intensity of MTG lane compared with GTG lane: higher fluorescence intensity
[3]
  Antigen recognizing ability of modified antibody: maintained its antigen recognizing ability
